Experimental data as given in patent US20220362330A1, “Compositions and Methods for Increasing Epithelial Barrier Function” (The Board of Trustees of the Leland Stanford Junior …, priority 2019, published 2022).
Entries after “also recorded” stand apart in the source; their conditions may differ.

Legend:
HSV-1 = assay: Genital HSV-1 GFP infection, virus replication in vaginal epithelium; format: in vivo, mice; conditions: 1.5 ug/30 uL ivag 24 h prior to 3×10^3 PFU HSV-1 GFP; tissue 24 h after infection
Protocol: Estrus-stage or DMPA-treated mice were intravaginally administered vehicle or recombinant mouse Fc-EFNA3 at 1.5 ug/30 uL 24 h prior to genital infection with 3×10^3 PFU HSV-1q GFP (fluorescent virus). Vaginal tissue was recovered 24 h after infection and evaluated for HSV-1 replication in the vaginal epithelium using confocal microscopy. […] To evaluate if treatment with rm-EphrinA3 protects mice from lethal HSV-2 infection, DMPA-treated mice were intravaginally administered Fc- or His-tagged versions of the rm-protein prior to infection. […] Because the microarray data indicated EphrinA1, EphrinA2, EphrinA3, EphrinA4, and EphrinA5 were upstream regulators of Dsg1 and Dsc1 expression in the mouse vagina, we hypothesized that capacity of EphrinA3 to increase cell-cell adhesion molecule expression may be shared by other members of the EphrinA family.

markers of inflammation = assay: Expression of markers of inflammation in ectocervical biopsies from women; format: in vivo; conditions: 1 month after initiating DMPA vs no hormonal contraceptive
DSG1 protein = DSG1 protein levels in vaginal tissue, immunofluorescent staining and confocal microscopy; format: in vivo, mice; conditions: progestin-treated mice vs mice in estrus
Protocol: Excised mouse vaginas were formaldehyde fixed and paraffin embedded (FFPE), and 10 μm sections mounted on glass slides and de-paraffinized by sequential immersion in 100% xylene, 100% ethanol, 96% ethanol, and sterile DEPC-treated water. Antigen retrieval was performed using 10 mM sodium citrate buffer (pH 6.0) containing 0.05% Tween 20 (both Sigma-Aldrich) (20 minutes at 95° C.). After 3 PBS washes, sections were incubated overnight in 10% normal goat serum (Abcam, Cambridge Mass.) at 4° C., then incubated for 1 h at ambient temperate with rabbit anti-desmoglein-1 (clone EPR6766(B)) antibody, washed and incubated for 1 h with AlexaFluor® 488-labeled goat anti-rabbit IgG (antibodies from Abcam) (all antibodies were diluted in PBS with 1% BSA and 0.05% Tween 20). Sections were stained with DAPI and evaluated for levels of DSG1 protein (defined by calculating pixel numbers per 100 μm^2) using confocal microscopy and ImageJ software.

genital mucosal tissue = assay: Entry of CFSE-labeled splenocytes into genital mucosal tissue; format: in vivo; conditions: CFSE-labeled splenocytes ivag, 12 hours; vs estrus-stage mice
Protocol: Estrus-stage or DMPA-treated mice were administered CFSE-labeled splenocytes intravaginally and euthanized 12 hours later. Relative leukocyte infiltration of vaginal mucosal tissue in estrus-stage vs. DMPA-treated mice was evaluated by confocal microscopy.
These findings established progestin mediated increases in mucosal permeability promote both passive entry of low molecular weight molecules and incursion of larger-sized cells that are more reliant on energy-dependent processes.

desmoglein-1a (DSG1a) = assay: qRT-PCR of Dsg1a gene expression in vaginal tissue; format: in vivo, mice; conditions: progestin-treated mice vs mice in estrus
Protocol: (§1) To define progestin-mediated changes in mucosal permeability, vaginal tissue from mice in estrus, diestrus, or after DMPA or LNG treatment was used to measure expression of the desmosomal cadherins desmoglein-1a (DSG1a) and desmocollin-1 (DSC1).
(§2) Human ectocervical and murine vaginal tissues were immediately immersed in 1 mL of RNAlater® (Qiagen), stored for 24 h at 4° C., and stored long-term at −80° C. RNA isolated using the RNeasy Lipid Tissue Kit (Qiagen) using manufacturer's instructions was re-suspended in nuclease-free water and quantified using a NanoDrop spectrophotometer (Thermo Scientific). The following mouse primers were utilized: desmocollin 1 (Mm00496525_ml), desmoglein-1α (Mm00809994_s1), ephrinA3 (Mm01212723_g1) and pyruvate carboxylase (Mm00500992_ml) as housekeeping reference gene (all from Thermo Scientific). These human primers were used: desmoglein-1 (Hs00355084_m1) and glucose-6-phosphate isomerase (Hs00976711_m1) as a housekeeping reference gene. To define relative gene expression, 100 ng of RNA was mixed with TaqMan® RNA-to-Ct™ 1-Step Kit and adequate primer (final volume of 10 μL/well) using manufacturer's instructions (Life Technologies). qRT-PCR was performed using a Quantstudio3 Thermal Cycler, and data analyzed via Quanstudio Software (Applied Biosystems).

desmocollin-1 (DSC1) = assay: qRT-PCR of Dsc1 gene expression in vaginal tissue; format: in vivo, mice; conditions: progestin-treated mice vs mice in estrus
Protocol: as §1, §2

[1] = test system: claudin-1, occludin, and tight junction protein 1; assay: Gene expression of other cell-cell adhesion molecules in vaginal tissue; format: in vivo, mice
EphrinA3 (EFNA3) = assay: EphrinA3 gene and protein expression in vaginal tissue (RT-PCR, immunohistochemistry); format: in vivo; conditions: DMPA-treated vs estrus-stage mice
Text: Vaginal tissue was harvested from mice in estrus, DMPA-treated mice, and mice treated with DMPA and Premarin vaginal cream were placed in RNAlater® for RNA isolation or embedded in formaldehyde for histology analysis. FIG. 5A is a bar graph showing gene expression for Ephrin A3 (Efna3) relative to pyruvate carboxylase, a housekeeping gene.
To corroborate microarray results, EphrinA3 gene and protein expression were compared in estrus-stage and DMPA-treated mice. To also evaluate effects of exogenous estrogen, other DMPA-treated mice were treated intravaginally with the estrogen cream Premarin. […] The vaginal tissue was assessed for DSG1 protein levels using immunofluorescent staining and confocal microscopy.
Human ectocervical and murine vaginal tissues were immediately immersed in 1 mL of RNAlater® (Qiagen), stored for 24 h at 4° C., and stored long-term at −80° C. RNA isolated using the RNeasy Lipid Tissue Kit (Qiagen) using manufacturer's instructions was re-suspended in nuclease-free water and quantified using a NanoDrop spectrophotometer (Thermo Scientific). […] To define relative gene expression, 100 ng of RNA was mixed with TaqMan® RNA-to-Ct™ 1-Step Kit and adequate primer (final volume of 10 μL/well) using manufacturer's instructions (Life Technologies). qRT-PCR was performed using a Quantstudio3 Thermal Cycler, and data analyzed via Quanstudio Software (Applied Biosystems). […]

## CC(=O)O[C@]1(C(C)=O)CC[C@H]2[C@@H]3C[C@H](C)C4=CC(=O)CC[C@]4(C)[C@H]3CC[C@@]21C [DMPA]
HSV-1
  Foci of virus replication observed in vaginal epithelium: observed
Markers of inflammation
  expression of markers of inflammation in ectocervical tissue: significantly higher
DSG1 protein
  DSG1a protein expression in vaginal tissue: significantly reduced
Genital mucosal tissue
  leukocyte entry into genital tissue: facilitates entry of leukocytes into genital mucosal tissue; also recorded: promoted leukocyte entry into genital tissue
desmoglein-1a (DSG1a)
  DSG1a gene expression in vaginal tissue: decrease gene expression levels
desmocollin-1 (DSC1)
  DSC1 gene expression in vaginal tissue: decrease gene expression levels
[1]
  gene expression of claudin-1, occludin, and tight junction protein 1: did not alter
EphrinA3 (EFNA3)
  expression of EphrinA3 in vaginal mucosal tissue: dramatically impair expression; also recorded: reduces EFNA3 expression
